The term viability denotes the share of living cells, or the viability signal relative to a control. The term IC50 denotes the concentration needed to halve the response being measured.

This note sets out measurements from patent publication US11820762B2, “Compounds as potential therapeutic agents targeting various neurodegenerative diseases” (The Hong Kong University of Science and Technology, priority 2020, dated 2023).

“Also recorded” adds a separate entry of the source. Like-named read-outs stand apart in the source and are kept apart here.

Assay [1] addresses T1, RRM domain of hnRNP H (Homo sapiens, UniProt P31943).
T1 construct: HSQC spectra of RRM1/2 of hnRNP H; hexahistidine (cleaved yes); made in house; host or cells: Escherichia coli BL21(DE3), pET-28a(+)
T1 sequence (P31943 1-194 limits assumed): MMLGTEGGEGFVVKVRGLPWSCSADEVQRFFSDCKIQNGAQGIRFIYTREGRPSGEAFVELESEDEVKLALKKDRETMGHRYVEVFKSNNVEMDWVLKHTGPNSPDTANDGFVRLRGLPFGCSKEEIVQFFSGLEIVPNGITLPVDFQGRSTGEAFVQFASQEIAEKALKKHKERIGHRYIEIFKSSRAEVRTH
The assay is described as follows: 1H-15N HSQC NMR titration of hnRNP H RRM domain. In kind it is binding. As to conditions: ratios 1:5 and 1:10. On the procedure:
The coding sequence of the RRM domain of hnRNP H/F, or human Orc6 was inserted into the expression vector pET-28a(+) (Novagen). Protein was expressed in Escherichia coli BL21(DE3) at 37° C. for 5 hours. Cell lysates were subject to affinity purification with nickel-nitrilotriacetic acid resin (Qiagen) followed by cleavage of hexahistidine tag with Protease 3C enzyme. Products were further purified on a Superdex 75 column (GE Healthcare). For NMR studies, uniformly ^15N labeled protein was expressed and purified as described above, except for cells grown in M9 medium containing 100% ^15N enriched ammonium chloride (Cambridge Isotopes) and d-glucose.
Titration experiments were performed by recording a series of 2D ^15N-HSQC spectra on uniformly ^15N-labeled RRM domain (˜0.1 mM) in the presence of different amounts of DNA/RNA or compounds at 25° C. Protein samples and stock solutions of DNA/RNA were all prepared in 20 mM potassium phosphate buffer and 70 mM KCl, pH 7.0, 10% D2O. All compounds were dissolved in isotope-labeled d6-DMSO (Sigma-Aldrich) at about 50 mM concentration, working as stock solutions. To avoid chemical shift changes of protein samples resulted from d6-DMSO addition, 10 μL d6-DMSO was added into 500 μL of 0.1 mM protein solution in the NMR buffer (20 mM potassium phosphate buffer and 70 mM KCl, pH 7.0, 10% D2O) and then the 2D HSQC was recorded as a reference.
In this scenario, specific RNA-binding proteins (RBPs), like hnRNP H, are recruited by the RNA foci, resulting in RNA processing impairment and further cytotoxicity to the central nervous system^30,36,37. Therefore, we tested the binding possibility of cA with the RRM domain of hnRNP H by NMR titration. […] Intriguingly, the DNA (G4C2)4 (SEQ ID NO: 5) G4 was also shown a potent binding affinity to the RRM domain of hnRNP H (FIG. 4C).

Assay [2] has as its system Neuro2a cells transfected with DNA (G4C2)29. The assay is described as follows: Cell viability of Neuro2a cells transfected with DNA (G4C2)29 (C9orf72 ALS/FTD cell model). The format is cell-based. To be noted: for effect on cell viability of (G4C2)29-transfected Neuro2a cells: 1 μg/ml; for viability at 1 µg/mL: Mus musculus, N2a, read-out: cell viability in (G4C2)29-cells. The procedure:
Cytotoxicity of compounds was tested by MTT assay. Cells were grown in DMEM (Gibco) with 10% FBS and 1% penicillin-streptomycin at 37° C. with 5% CO2. In total, 5×10^3 cells were seeded in each well of 96-well plates and cultured for 24 hours. Then cells were treated with different concentrations of compounds dissolved in DMSO for another 24 hours. After incubating with 20 μl of MTT (5 mg/mL) for each well at 37° C. for another four hours, 100 μl of DMSO was added to dissolve formazan. Absorbance was measured using a Multiskan™ FC microplate photometer at 570 nm. IC50 data were analyzed with GraphPad Prism software.
DNA constructs were transfected to neuronal Neuro2a cell lines using Lipofectamine 2000 (Thermo Fisher Scientific, 11668019). 4 to 6 hours after transfection, fresh culture medium was used to replace the transfection medium, and cells were incubated for another 48 hours to allow recovery and construct expression.

Assay [3] has as its target T2, Tau-R3 (Homo sapiens, UniProt P10636).
T2 construct: Tau-R3 protein was synthesized and purchased from ChinaPeptides Co., Ltd; purchased ChinaPeptides Co., Ltd; host or cells: chemical synthesis
The assay is described as follows: Thioflavin T (ThT) fluorescent tau-R3 aggregation assay. In kind it is biochemical. As to conditions: 20 μM Tau-R3, 10 μM heparin, read-out: IC50 of Tau-R3 aggregation inhibition (converted). On the procedure:
Tau-R3 protein was synthesized and purchased from ChinaPeptides Co., Ltd. ThT (ab120751, 1 mM) solution was freshly prepared in 50 mM Tris-HCl buffer (pH 7.4) and passed through a 0.45 μm pore size filter to remove insoluble particles before use. Tau-R3 (20 μM) was incubated with 20 μM ThT and 10 μM heparin in the presence or absence of cA, cB and cC. Samples in 200 μL were added to 96-well plates and incubated at 37° C. for 24-48 hours. ThT fluorescence intensity was recorded using a microplate reader with 440/480 nm excitation/emission filters at different time points. Non-linear regression analysis was performed to fit the boltzmann sigmoidal.
(§1) In the C9orf72 ALS/FTD, there is a strong genetic association between the microtubule-binding protein, tau and the G4C2 HRE. […] The co-expression of Tau and G4C2 repeats produces a synergistic deterioration of the neurodegeneration phenotype of ALS/FTD^46. Considering the tight correlation of Tau aggregation with the ALS/FTD pathogenesis, we tested our compounds in a non-cell-based Tau-R3 aggregation inhibition assay. […] Moreover, we conducted high magnification TEM imaging to characterize the morphological changes of Tau-R3 fibrils with cA, cB and cC treatments. […] Furthermore, the misfolding of tau protein into filaments in neurons of the central nervous system can be found in various neurodegenerative diseases, such as Alzheimer's disease et al. Therefore, the inhibition on tau aggregation represented a potential of cA and its derivatives in targeting multiple other neurodegenerative diseases more than ALS.

The target in assay [4] is T3, Tau-R3 fibrils (Homo sapiens, UniProt P10636).
T3 construct: Tau-R3 protein was synthesized and purchased from ChinaPeptides Co., Ltd; purchased ChinaPeptides Co., Ltd; host or cells: chemical synthesis
The assay is described as follows: TEM imaging of Tau-R3 fibrils. The format is biochemical. To be noted: cA 10 μg/ml, cB 5 μg/ml, cC 10 μg/ml. On the procedure:
Samples from ThT fluorescence experiments were directly applied to a 300-mesh carbon coating copper grid. 20 μL of aggregate samples were dispensed onto a sheet of parafilm, and a copper grid was placed onto the sample drop for 5 mins. The copper grid with samples was moved to water drop for 5 mins-washing, and then stained with 2% uranyl acetate for 5 mins. Images were captured using a transmission electron microscope (Thermo Scientific Talos L120C) at a magnification of 13500× and an acceleration voltage of 120 kV.
as §1

T2 sequence (P10636 623-653 limits assumed): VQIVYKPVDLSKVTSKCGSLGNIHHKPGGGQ
T3 sequence (P10636 623-653 limits assumed): as above

As to `CC(=O)Cc1cc2c(c(O)c1C(=O)O)-c1c(c(O)c3oc4c(O[C@@H]5OC(C(=O)O)=C[C@H](O)[C@H]5O)cccc4c(=O)c3c1O)CC2` [cA, chrexanthomycin A], the “binding to RRM domain of hnRNP H by NMR titration” value (“binding to RRM domain of hnRNP H” below) in assay [1] is given as “bound to the RRM domain of hnRNP H”. The “effect on cell viability of (G4C2)29-transfected Neuro2a cells” value (from here on “effect on cell viability”) in assay [2] is “partially increased the cell viability”. Further, the viability at 1 µg/mL in assay [2] (1 μg/mL, model group 20%) was 30%. The half-maximal inhibitory concentration (IC50) in assay [3] was approximately 0.518 µM. Further, in assay [4], the “morphological change of Tau-R3 fibrils (TEM)” value (“morphological change” for short) was “broken into shorter and thinner fragments”.
Take `COc1c2c(c(O)c3c(=O)c4cccc(O[C@@H]5OC(C(=O)O)=C[C@H](O)[C@H]5O)c4oc13)-c1c(cc(CC(C)=O)c(C(=O)O)c1O)CC2` [cB, chrexanthomycin B]: the “binding to RRM domain of hnRNP H” value in assay [1] is “much weaker bindings”. For the same molecule, the “effect on cell viability” value in assay [2] is “made it worse; also recorded: even worse than the model group”. Moreover, the concentration for half-maximal inhibition (IC50) in assay [3] is 2.05 µM. In addition, the “morphological change” value in assay [4] was “broken into shorter and thinner fragments”.
Consider `CC(=O)Cc1cc2c(c(O)c1C(=O)O)-c1c(c(O)c3oc4c(O[C@@H]5O[C@H](C(=O)O)[C@@H](O)[C@H](O)[C@H]5O)cccc4c(=O)c3c1O)CC2` [cC, chrexanthomycin C], for which the “binding to RRM domain of hnRNP H” value in assay [1] is “a little bit stronger than cA”. Further, in assay [2], the “effect on cell viability” value was “partially increased the cell viability” and the viability at 1 µg/mL came out at 40%. The IC50 in assay [3] was 5.76 µM. Also, the “morphological change” value in assay [4] is “broken into shorter and thinner fragments”.
